Test results reported in BindingDB's records for doi:10.1038/nchembio.2007.34 (GlaxoSmithKline, 2007).
pKi: −log10 of the molar value.

Biological target: T1, Kinesin-like protein KIF11 (Homo sapiens, UniProt P52732)
T1 sequence (P52732 whole entry): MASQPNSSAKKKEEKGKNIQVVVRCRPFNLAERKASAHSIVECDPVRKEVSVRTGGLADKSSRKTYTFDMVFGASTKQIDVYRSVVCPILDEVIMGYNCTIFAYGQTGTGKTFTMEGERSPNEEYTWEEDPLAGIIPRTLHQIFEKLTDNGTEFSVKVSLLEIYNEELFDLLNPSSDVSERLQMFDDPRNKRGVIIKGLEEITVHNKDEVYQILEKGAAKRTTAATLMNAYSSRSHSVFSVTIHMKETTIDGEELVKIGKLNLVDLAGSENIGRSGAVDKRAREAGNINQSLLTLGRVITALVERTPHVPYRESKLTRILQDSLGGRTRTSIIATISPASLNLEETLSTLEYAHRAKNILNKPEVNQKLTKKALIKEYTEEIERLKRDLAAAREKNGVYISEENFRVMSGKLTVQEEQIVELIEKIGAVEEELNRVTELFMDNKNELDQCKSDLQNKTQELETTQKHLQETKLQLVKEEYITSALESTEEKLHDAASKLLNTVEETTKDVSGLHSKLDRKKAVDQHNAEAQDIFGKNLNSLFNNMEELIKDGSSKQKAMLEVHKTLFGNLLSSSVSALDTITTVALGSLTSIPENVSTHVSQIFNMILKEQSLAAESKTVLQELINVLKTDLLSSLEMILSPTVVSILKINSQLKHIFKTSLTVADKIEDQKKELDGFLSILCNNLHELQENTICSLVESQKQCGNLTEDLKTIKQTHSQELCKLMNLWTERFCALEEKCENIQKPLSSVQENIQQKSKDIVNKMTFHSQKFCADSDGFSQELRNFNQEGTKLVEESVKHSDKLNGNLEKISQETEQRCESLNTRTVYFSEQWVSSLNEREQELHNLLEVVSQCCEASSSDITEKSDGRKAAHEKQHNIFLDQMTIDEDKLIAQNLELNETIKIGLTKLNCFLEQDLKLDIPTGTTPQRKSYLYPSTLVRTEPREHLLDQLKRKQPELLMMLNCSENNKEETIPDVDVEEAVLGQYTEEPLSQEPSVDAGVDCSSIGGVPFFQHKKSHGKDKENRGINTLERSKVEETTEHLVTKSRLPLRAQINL
Experiment: Wild-type HCT116
Conditions: pH 6.8
Text: Cell proliferation assay for wild-type cells

Structure (SMILES): O=C1CCc2cc(-c3ccc(C(F)(F)F)cc3)ccc2N1 [6-[4-(Trifluoromethyl)phenyl]-3,4-dihydro-2(1H)-quinolinone]
- pKi: 8.77
